Measured values taken from ChEMBL document CHEMBL1151757, “Synthesis, radiosynthesis, and biological evaluation of fluorine-18-labeled 2beta-carbo(fluoroalkoxy)-3beta-(3'-((Z)-2-haloethenyl)phenyl)nortropanes: candidate radioligands for in vivo imaging of the serotonin transporter with positron emission tomography” (J Med Chem, 2008).

Assays:
Putamen [1] = assay: Drug uptake in anesthetized cynomolgus monkey brain putamen after 165 mins postinjection; format: ADME, organism-based, Macaca fascicularis; settings: in vivo, 2.75 h
Putamen [2] = assay: Drug uptake in anesthetized cynomolgus monkey brain putamen after 18.5 mins postinjection; format: ADME, organism-based, Macaca fascicularis; parameters: unit not given here; settings: in vivo
Caudate [3] = assay: Drug uptake in anesthetized cynomolgus monkey brain caudate after 45 mins postinjection; format: ADME, organism-based, Macaca fascicularis, Caudate nucleus; settings: in vivo, 0.75 h
Midbrain [4] = assay: Drug uptake in anesthetized cynomolgus monkey brain midbrain after 18.5 mins postinjection; format: ADME, organism-based, Macaca fascicularis; parameters: unit not given here; settings: in vivo
[5] = Ratio of drug uptake in medulla to cerebellum in anesthetized cynomolgus monkey after 65 mins postinjection; format: ADME, organism-based, Macaca fascicularis; settings: in vivo
Caudate [6] = assay: Drug uptake in anesthetized cynomolgus monkey brain caudate after 235 mins postinjection; format: ADME, organism-based, Macaca fascicularis, Caudate nucleus; settings: in vivo
[7] = Drug uptake in anesthetized cynomolgus monkey brain occipital lobe after 155 mins postinjection; format: ADME, organism-based, Macaca fascicularis; settings: in vivo
[8] = Drug uptake in anesthetized cynomolgus monkey brain frontal lobe after 215 mins postinjection; format: ADME, organism-based, Macaca fascicularis; settings: in vivo
[9] = Drug uptake in anesthetized cynomolgus monkey brain frontal lobe after 95 mins postinjection; format: ADME, organism-based, Macaca fascicularis; settings: in vivo
Pons [10] = assay: Drug uptake in anesthetized cynomolgus monkey brain pons after 9.5 mins postinjection; format: ADME, organism-based, Macaca fascicularis; settings: in vivo
Medulla [11] = assay: Drug uptake in anesthetized cynomolgus monkey brain medulla after 95 mins postinjection; format: ADME, organism-based, Macaca fascicularis; settings: in vivo
[12] = Ratio of drug uptake in medulla to cerebellum in anesthetized cynomolgus monkey after 12.5 mins postinjection; format: ADME, organism-based, Macaca fascicularis; settings: in vivo
Putamen [13] = assay: Drug uptake in anesthetized cynomolgus monkey brain putamen after 115 mins postinjection; format: ADME, organism-based, Macaca fascicularis; parameters: unit not given here; settings: in vivo
Caudate [14] = assay: Drug uptake in anesthetized cynomolgus monkey brain caudate after 55 mins postinjection; format: ADME, organism-based, Macaca fascicularis, Caudate nucleus; settings: in vivo
Medulla [15] = assay: Drug uptake in anesthetized cynomolgus monkey brain medulla after 1.5 mins postinjection; format: ADME, organism-based, Macaca fascicularis; settings: in vivo, 0.025 h
Midbrain [16] = assay: Drug uptake in anesthetized cynomolgus monkey brain midbrain after 3.5 mins postinjection; format: ADME, organism-based, Macaca fascicularis; parameters: unit not given here; settings: in vivo
Medulla [17] = assay: Drug uptake in anesthetized cynomolgus monkey brain medulla after 6.5 mins postinjection; format: ADME, organism-based, Macaca fascicularis; settings: in vivo
Pons [18] = assay: Drug uptake in anesthetized cynomolgus monkey brain pons after 55 mins postinjection; format: ADME, organism-based, Macaca fascicularis; settings: in vivo
Pons [19] = assay: Drug uptake in anesthetized cynomolgus monkey brain pons after 175 mins postinjection; format: ADME, organism-based, Macaca fascicularis; settings: in vivo
Caudate [20] = assay: Drug uptake in anesthetized cynomolgus monkey brain caudate after 85 mins postinjection; format: ADME, organism-based, Macaca fascicularis, Caudate nucleus; settings: in vivo
Putamen [21] = assay: Drug uptake in anesthetized cynomolgus monkey brain putamen after 6.5 mins postinjection; format: ADME, organism-based, Macaca fascicularis; parameters: unit not given here; settings: in vivo
Thalamus [22] = assay: Drug uptake in anesthetized cynomolgus monkey brain thalamus after 175 mins postinjection; format: ADME, organism-based, Macaca fascicularis; parameters: unit not given here; settings: in vivo
[23] = Drug uptake in anesthetized cynomolgus monkey brain cerebellum after 3.5 mins postinjection; format: ADME, organism-based, Macaca fascicularis; settings: in vivo
Medulla [24] = assay: Drug uptake in anesthetized cynomolgus monkey brain medulla after 145 mins postinjection; format: ADME, organism-based, Macaca fascicularis; settings: in vivo
[25] = Ratio of drug uptake in midbrain to cerebellum in anesthetized cynomolgus monkey after 27.5 mins postinjection; format: ADME, organism-based, Macaca fascicularis; settings: in vivo
[26] = Drug uptake in anesthetized cynomolgus monkey brain occipital lobe after 145 mins postinjection; format: ADME, organism-based, Macaca fascicularis; settings: in vivo
[27] = Drug uptake in anesthetized cynomolgus monkey brain occipital lobe after 55 mins postinjection; format: ADME, organism-based, Macaca fascicularis; settings: in vivo
[28] = Drug uptake in anesthetized cynomolgus monkey brain frontal lobe after 3.5 mins postinjection; format: ADME, organism-based, Macaca fascicularis; settings: in vivo
Midbrain [29] = assay: Drug uptake in anesthetized cynomolgus monkey brain midbrain after 22.5 mins postinjection; format: ADME, organism-based, Macaca fascicularis; parameters: unit not given here; settings: in vivo, 0.375 h
Thalamus [30] = assay: Drug uptake in anesthetized cynomolgus monkey brain thalamus after 2.5 mins postinjection; format: ADME, organism-based, Macaca fascicularis; parameters: unit not given here; settings: in vivo
[31] = Ratio of drug uptake in frontal lobe to cerebellum in anesthetized cynomolgus monkey after 135 mins postinjection; format: ADME, organism-based, Macaca fascicularis; settings: in vivo, 2.25 h
Medulla [32] = assay: Drug uptake in anesthetized cynomolgus monkey brain medulla after 155 mins postinjection; format: ADME, organism-based, Macaca fascicularis; settings: in vivo
Pons [33] = assay: Drug uptake in anesthetized cynomolgus monkey brain pons after 18.5 mins postinjection; format: ADME, organism-based, Macaca fascicularis; settings: in vivo
[34] = Ratio of drug uptake in pons to cerebellum in anesthetized cynomolgus monkey after 35 mins postinjection; format: ADME, organism-based, Macaca fascicularis; settings: in vivo
[35] = Drug uptake in anesthetized cynomolgus monkey brain cerebellum after 18.5 mins postinjection; format: ADME, organism-based, Macaca fascicularis; settings: in vivo
[36] = Ratio of drug uptake in caudate to cerebellum in anesthetized cynomolgus monkey after 12.5 mins postinjection; format: ADME, organism-based, Macaca fascicularis; settings: in vivo
Midbrain [37] = assay: Drug uptake in anesthetized cynomolgus monkey brain midbrain after 9.5 mins postinjection; format: ADME, organism-based, Macaca fascicularis; parameters: unit not given here; settings: in vivo
[38] = Ratio of drug uptake in putamen to cerebellum in anesthetized cynomolgus monkey after 165 mins postinjection; format: ADME, organism-based, Macaca fascicularis; settings: in vivo, 2.75 h
Midbrain [39] = assay: Drug uptake in anesthetized cynomolgus monkey brain midbrain after 35 mins postinjection; format: ADME, organism-based, Macaca fascicularis; parameters: unit not given here; settings: in vivo
Pons [40] = assay: Drug uptake in anesthetized cynomolgus monkey brain pons after 135 mins postinjection; format: ADME, organism-based, Macaca fascicularis; settings: in vivo, 2.25 h
Caudate [41] = assay: Drug uptake in anesthetized cynomolgus monkey brain caudate after 1.5 mins postinjection; format: ADME, organism-based, Macaca fascicularis, Caudate nucleus; settings: in vivo, 0.025 h
Midbrain [42] = assay: Drug uptake in anesthetized cynomolgus monkey brain midbrain after 105 mins postinjection; format: ADME, organism-based, Macaca fascicularis; parameters: unit not given here; settings: in vivo, 1.75 h
Midbrain [43] = assay: Drug uptake in anesthetized cynomolgus monkey brain midbrain after 6.5 mins postinjection; format: ADME, organism-based, Macaca fascicularis; parameters: unit not given here; settings: in vivo
[44] = Drug uptake in anesthetized cynomolgus monkey brain occipital lobe after 135 mins postinjection; format: ADME, organism-based, Macaca fascicularis; settings: in vivo, 2.25 h
Caudate [45] = assay: Drug uptake in anesthetized cynomolgus monkey brain caudate after 4.5 mins postinjection; format: ADME, organism-based, Macaca fascicularis, Caudate nucleus; settings: in vivo, 0.075 h
Putamen [46] = assay: Drug uptake in anesthetized cynomolgus monkey brain putamen after 225 mins postinjection; format: ADME, organism-based, Macaca fascicularis; settings: in vivo, 3.75 h
Medulla [47] = assay: Drug uptake in anesthetized cynomolgus monkey brain medulla after 2.5 mins postinjection; format: ADME, organism-based, Macaca fascicularis; settings: in vivo
Midbrain [48] = assay: Drug uptake in anesthetized cynomolgus monkey brain midbrain after 55 mins postinjection; format: ADME, organism-based, Macaca fascicularis; parameters: unit not given here; settings: in vivo
[49] = Drug uptake in anesthetized cynomolgus monkey brain cerebellum after 115 mins postinjection; format: ADME, organism-based, Macaca fascicularis; settings: in vivo
Thalamus [50] = assay: Drug uptake in anesthetized cynomolgus monkey brain thalamus after 55 mins postinjection; format: ADME, organism-based, Macaca fascicularis; parameters: unit not given here; settings: in vivo
[51] = Drug uptake in anesthetized cynomolgus monkey brain occipital lobe after 165 mins postinjection; format: ADME, organism-based, Macaca fascicularis; settings: in vivo, 2.75 h
[52] = Ratio of drug uptake in medulla to cerebellum in anesthetized cynomolgus monkey after 1.5 mins postinjection; format: ADME, organism-based, Macaca fascicularis; settings: in vivo, 0.025 h
[53] = Ratio of drug uptake in frontal lobe to cerebellum in anesthetized cynomolgus monkey after 75 mins postinjection; format: ADME, organism-based, Macaca fascicularis; settings: in vivo, 1.25 h
[54] = Drug uptake in anesthetized cynomolgus monkey brain frontal lobe after 105 mins postinjection; format: ADME, organism-based, Macaca fascicularis; settings: in vivo, 1.75 h
Medulla [55] = assay: Drug uptake in anesthetized cynomolgus monkey brain medulla after 4.5 mins postinjection; format: ADME, organism-based, Macaca fascicularis; settings: in vivo, 0.075 h
[56] = Ratio of drug uptake in medulla to cerebellum in anesthetized cynomolgus monkey after 9.5 mins postinjection; format: ADME, organism-based, Macaca fascicularis; settings: in vivo
Medulla [57] = assay: Drug uptake in anesthetized cynomolgus monkey brain medulla after 215 mins postinjection; format: ADME, organism-based, Macaca fascicularis; settings: in vivo
[58] = Drug uptake in anesthetized cynomolgus monkey brain occipital lobe after 2.5 mins postinjection; format: ADME, organism-based, Macaca fascicularis; settings: in vivo
[59] = Drug uptake in anesthetized cynomolgus monkey brain occipital lobe after 0.5 mins postinjection; format: ADME, organism-based, Macaca fascicularis; settings: in vivo
Medulla [60] = assay: Drug uptake in anesthetized cynomolgus monkey brain medulla after 235 mins postinjection; format: ADME, organism-based, Macaca fascicularis; settings: in vivo
Midbrain [61] = assay: Drug uptake in anesthetized cynomolgus monkey brain midbrain after 215 mins postinjection; format: ADME, organism-based, Macaca fascicularis; settings: in vivo
[62] = Drug uptake in anesthetized cynomolgus monkey brain cerebellum after 22.5 mins postinjection; format: ADME, organism-based, Macaca fascicularis; settings: in vivo, 0.375 h

For O=C(OCCC[18F])C1C2CCC(CC1c1cccc(/C=C\Br)c1)N2 (configuration not stated), the Drug uptake (Putamen [1]) was 4.31, the Drug uptake (Putamen [2]) was 5.83 and the Drug uptake (Caudate [3]) was 5.32. It also gave a Drug uptake (Midbrain [4]) of 5.49, a Ratio [5] of 1.3 and a Drug uptake (Caudate [6]) of 3.28. For the same compound, the Drug uptake [7] was 3.27, the Drug uptake [8] was 2.03 and the Drug uptake [9] was 3.31. The Drug uptake (Pons [10]) was 4.14, the Drug uptake (Medulla [11]) was 5.59 and the Ratio [12] was 1. The Drug uptake (Putamen [13]) was 5.03, the Drug uptake (Caudate [14]) was 5.31 and the Drug uptake (Medulla [15]) was 0.42. The Drug uptake (Midbrain [16]) was 2.59, the Drug uptake (Medulla [17]) was 5.26 and the Drug uptake (Pons [18]) was 4.72. The Drug uptake (Pons [19]) was 3.78, the Drug uptake (Caudate [20]) was 5.23 and the Drug uptake (Putamen [21]) was 4.42. It also gave a Drug uptake (Thalamus [22]) of 4, a Drug uptake [23] of 2.81 and a Drug uptake (Medulla [24]) of 4.91. The Ratio [25] was 1.1, the Drug uptake [26] was 3.5 and the Drug uptake [27] was 4.59. It also gave a Drug uptake [28] of 1.47, a Drug uptake (Midbrain [29]) of 5.88 and a Drug uptake (Thalamus [30]) of 1.12. The Ratio [31] was 1, the Drug uptake (Medulla [32]) was 4.48 and the Drug uptake (Pons [33]) was 4.55. The Ratio [34] was 0.9, the Drug uptake [35] was 6.08 and the Ratio [36] was 0.7. It also gave a Drug uptake (Midbrain [37]) of 5.04, a Ratio [38] of 1.7 and a Drug uptake (Midbrain [39]) of 6.14. The Drug uptake (Pons [40]) was 4.03, the Drug uptake (Caudate [41]) was 0.31 and the Drug uptake (Midbrain [42]) was 5.59. The Drug uptake (Midbrain [43]) was 4.35, the Drug uptake [44] was 3.57 and the Drug uptake (Caudate [45]) was 2.17. The Drug uptake (Putamen [46]) was 3.51, the Drug uptake (Medulla [47]) was 1.62 and the Drug uptake (Midbrain [48]) was 6.1. For the same compound, the Drug uptake [49] was 3.29, the Drug uptake (Thalamus [50]) was 5.46 and the Drug uptake [51] was 3.22. The Ratio [52] was 0.9, the Ratio [53] was 0.9 and the Drug uptake [54] was 3.19. It also gave a Drug uptake (Medulla [55]) of 3.95, a Ratio [56] of 1 and a Drug uptake (Medulla [57]) of 3.67. It also gave a Drug uptake [58] of 1.03, a Drug uptake [59] of 0.01 and a Drug uptake (Medulla [60]) of 3.34. For the same compound, the Drug uptake (Midbrain [61]) was 4.58 and the Drug uptake [62] was 5.9.
